Key:
[1] = tested on: human colon cancer cell line Caco-2; test: In vitro cytotoxicity, MTT assay; assay type: cell-based; details: Caco-2, 24 h, 0.001–100 μg ml^−1
[2] = cited from earlier work
[3] = cited from earlier work; remark: listed apart in the source
[4] = cited from earlier work; remark: listed apart in the source

Compound	Cell viability of Caco-2 cells versus concentration [1]	Solubility of DIC in water [2]	Acute toxicity [3]	Oral acute toxicity dose [4]
N#CC(c1ccc(Cl)cc1)c1c(Cl)cc(-n2ncc(=O)[nH]c2=O)cc1Cl (stereo not shown) [DIC, Diclazuril]	gradually decreased with the increase of free drug concentration	0.69 µg/mL	low acute toxicity	
OB(O)c1ccccc1 [phenylboronic acid]				higher than 900 mg kg^−1 body weight
